Source: ChEMBL document CHEMBL4152235, “Synthesis, anionophoric activity and apoptosis-inducing bioactivity of benzimidazolyl-based transmembrane anion transporters” (Eur J Med Chem, 2018)
Activity calls are given as the source filed them. The calls are words filed in the database; no cut-off is given here.

What was measured:
MCF7 [1] = test: Cytotoxicity against human MCF7 cells assessed as reduction in cell viability at 50 uM after 48 hrs by MTT assay relative to control; assay type: functional; details: MCF7, 48 h
A549 [2] = test: Cytotoxicity against human A549 cells assessed as reduction in cell viability at 50 uM after 48 hrs by MTT assay relative to control; assay type: functional; details: A549, 48 h
HepG2 [3] = test: Cytotoxicity against human HepG2 cells assessed as reduction in cell viability at 50 uM after 48 hrs by MTT assay relative to control; assay type: functional; details: HepG2, 48 h
HeLa [4] = test: Cytotoxicity against human HeLa cells assessed as reduction in cell viability at 50 uM after 48 hrs by MTT assay relative to control; assay type: functional
HeLa [5] = test: Ionophoric activity across human HeLa cells assessed as chloride ion efflux up to 10 uM after 2 hrs by MQAE dye based fluorescence assay; assay type: cell-based
HepG2 [6] = test: Cytotoxicity against human HepG2 cells assessed as reduction in cell viability after 48 hrs by MTT assay; assay type: functional, cell-based; details: HepG2, 48 h
[7] = Ionophoric activity across pyranine dye encapsulated pH 7 egg yolk L-alpha-phosphatidylcholine-based liposomal membranes assessed as chloride ion transport by measuring induction of pH discharge after 20 mins in presence of NaCl loaded external vesicles by fluorescence method relative to m-Bimbe
HeLa [8] = test: Ionophoric activity across human HeLa cells assessed as chloride ion efflux at 10 uM after 3 hrs by acridine orange staining based fluorescence microscopic analysis; assay type: cell-based
MCF7 [9] = test: Ionophoric activity across human MCF7 cells assessed as chloride ion efflux up to 10 uM after 2 hrs by MQAE dye based fluorescence assay; assay type: cell-based
[10] = (§1) Ionophoric activity across pyranine dye encapsulated pH 7 egg yolk L-alpha-phosphatidylcholine-based liposomal membranes assessed as chloride ion transport by measuring induction of pH discharge after 20 mins in presence of NaCl loaded external vesicles by fluorescence method
HeLa [11] = test: Cytotoxicity against human HeLa cells assessed as reduction in cell viability after 48 hrs by MTT assay; assay type: functional, cell-based
MCF7 [12] = test: Cytotoxicity against human MCF7 cells assessed as reduction in cell viability after 48 hrs by MTT assay; assay type: functional, cell-based; details: MCF7, 48 h
L02 = test: Cytotoxicity against human LO2 cells assessed as reduction in cell viability after 48 hrs by MTT assay; assay type: cell-based; details: L02, 48 h
A549 [13] = test: Cytotoxicity against human A549 cells assessed as reduction in cell viability after 48 hrs by MTT assay; assay type: functional, cell-based; details: A549, 48 h
[14] = Binding affinity to chloride ion at 1.5 x 10^-5M using tetra(n-butyl)ammonium chloride measured after 2 mins by spectrophotometric titration method
[15] = Binding affinity to chloride ion assessed as 1:1 compound-Cl- complex formation at 4.1 mM using tetra(n-butyl)ammonium chloride by ESI MS spectrometric method
[16] = Binding affinity to chloride ion at 1.5 x 10^-5M using tetra(n-butyl)ammonium chloride measured after 5 mins by spectrophotometric titration method
[17] = as §1, with “measuring initial rate constant for” for “measuring”, “discharge at 6.25 x 10^-2 mol%” for “discharge”, “method (reference value: 5.03 +/- 1.02 10^-3/min)” for “method”
[18] = as §1, with “measuring initial rate constant for” for “measuring”, “discharge at 2.50 x 10^-1 mol%” for “discharge”, “method (reference value: 5.03 +/- 1.02 10^-3/min)” for “method”
[19] = as §1, with “measuring initial rate constant for” for “measuring”, “discharge at 3.13 x 10^-2 mol%” for “discharge”, “method (reference value: 5.03 +/- 1.02 10^-3/min)” for “method”
[20] = as §1, with “measuring initial rate constant for” for “measuring”, “discharge at 1.25 x 10^-1 mol%” for “discharge”, “method (reference value: 5.03 +/- 1.02 10^-3/min)” for “method”
[21] = as §1, with “measuring initial rate constant for” for “measuring”, “discharge at 1.56 x 10^-2 mol%” for “discharge”, “method (reference value: 5.03 +/- 1.02 10^-3/min)” for “method”
[22] = as §1, with “measuring initial rate constant for” for “measuring”, “discharge at 7.81 x 10^-3 mol%” for “discharge”, “method (reference value: 5.03 +/- 1.02 10^-3/min)” for “method”

## c1ccc(-c2nc3ccccc3[nH]2)cc1
MCF7 [1]
  inhibition at 50 µM: 25.5%
A549 [2]
  inhibition at 50 µM: 1.2%
HepG2 [3]
  inhibition at 50 µM: 11.6%
HeLa [4]
  inhibition at 50 µM: 8.1%

## FC(F)(F)c1ccc2nc(-c3cccc(-c4nc5ccc(C(F)(F)F)cc5[nH]4)c3)[nH]c2c1
HeLa [5]
  Activity: Active
HepG2 [6]
  IC50: 6.6 µM
[7]
  fold change (FC): 67
MCF7 [1]
  inhibition at 50 µM: 98.8%
HeLa [8]
  Activity: Active
MCF7 [9]
  Activity: Active
[10]
  EC50: 9.59 ×10⁻² mol%
[10]; read-out: EC50
  EC50: 1.27 µM
A549 [2]
  inhibition at 50 µM: 99.3%
HeLa [11]
  IC50: 8 µM
HepG2 [3]
  inhibition at 50 µM: 100%
MCF7 [12]
  IC50: 12.8 µM
L02
  IC50: 10.9 µM
A549 [13]
  IC50: 8.9 µM
[14]
  Ka: 4.52 ×10³ /M
HeLa [4]
  inhibition at 50 µM: 100%

## O=[N+]([O-])c1ccc2nc(-c3cccc(-c4nc5ccc([N+](=O)[O-])cc5[nH]4)c3)[nH]c2c1
[7]
  fold change (FC): 790
MCF7 [1]
  inhibition at 50 µM: 47.4%
[10]
  EC50: 8.19 ×10⁻³ mol%
[10]; read-out: EC50
  EC50: 0.11 µM
A549 [2]
  inhibition at 50 µM: 52.1%
HepG2 [3]
  inhibition at 50 µM: 15.4%
[14]
  Ka: 2.22 ×10³ /M
HeLa [4]
  inhibition at 50 µM: 59.2%

## COc1cc(-c2nc3ccc([N+](=O)[O-])cc3[nH]2)cc(-c2nc3ccc([N+](=O)[O-])cc3[nH]2)c1
HepG2 [6]
  IC50: 8.9 µM
[7]
  fold change (FC): 20
[15]
  Activity: Active
MCF7 [1]
  inhibition at 50 µM: 96.3%
[10]
  Activity: Dose-dependent effect
  EC50: 0.32 mol%
[10]; read-out: EC50
  EC50: 4.24 µM
A549 [2]
  inhibition at 50 µM: 67.7%
HeLa [11]
  IC50: 1 µM
HepG2 [3]
  inhibition at 50 µM: 96.7%
MCF7 [12]
  IC50: 17.1 µM
L02
  IC50: 26.3 µM
[16]
  Ka: 1.56 ×10³ /M
A549 [13]
  IC50: 18.5 µM
HeLa [4]
  inhibition at 50 µM: 85.3%

## COc1cc(-c2nc3ccc(C(F)(F)F)cc3[nH]2)cc(-c2nc3ccc(C(F)(F)F)cc3[nH]2)c1
[17]
  K: 8.52 ×10⁻² /min
HeLa [5]
  Activity: Active
[18]
  K: 1.47 ×10⁻¹ /min
HepG2 [6]
  IC50: 10.7 µM
[7]
  fold change (FC): 43
[15]
  Activity: Active
MCF7 [1]
  inhibition at 50 µM: 98.9%
HeLa [8]
  Activity: Active
MCF7 [9]
  Activity: Active
[10]
  Activity: Dose-dependent effect
  EC50: 0.15 mol%
[10]; read-out: EC50
  EC50: 1.99 µM
A549 [2]
  inhibition at 50 µM: 100%
HeLa [11]
  IC50: 8.4 µM
HepG2 [3]
  inhibition at 50 µM: 101%
MCF7 [12]
  IC50: 11.9 µM
[19]
  K: 6.31 ×10⁻² /min
L02
  IC50: 10.1 µM
[16]
  Ka: 3.53 ×10³ /M
A549 [13]
  IC50: 8.1 µM
[20]
  K: 1.16 ×10⁻¹ /min
[21]
  K: 4.33 ×10⁻² /min
[22]
  K: 3.23 ×10⁻² /min
HeLa [4]
  inhibition at 50 µM: 91.8%

## Brc1ccc2nc(-c3cccc(-c4nc5ccc(Br)cc5[nH]4)c3)[nH]c2c1
HepG2 [6]
  IC50: 12.1 µM
MCF7 [1]
  inhibition at 50 µM: 93.5%
A549 [2]
  inhibition at 50 µM: 92.6%
HeLa [11]
  IC50: 21.1 µM
HepG2 [3]
  inhibition at 50 µM: 93.1%
MCF7 [12]
  IC50: 9.7 µM
L02
  IC50: 17.8 µM
A549 [13]
  IC50: 21.9 µM
HeLa [4]
  inhibition at 50 µM: 98%

## c1ccc(-c2nc3ccccc3[nH]2)c(-c2nc3ccccc3[nH]2)c1
MCF7 [1]
  inhibition at 50 µM: 11.6%
A549 [2]
  inhibition at 50 µM: -6%
HepG2 [3]
  inhibition at 50 µM: 3.6%
HeLa [4]
  inhibition at 50 µM: 24.9%

## Clc1ccc2nc(-c3cccc(-c4nc5ccc(Cl)cc5[nH]4)c3)[nH]c2c1
HepG2 [6]
  IC50: 9.1 µM
MCF7 [1]
  inhibition at 50 µM: 90.5%
A549 [2]
  inhibition at 50 µM: 82.4%
HeLa [11]
  IC50: 10.7 µM
HepG2 [3]
  inhibition at 50 µM: 98.4%
MCF7 [12]
  IC50: 25.9 µM
L02
  IC50: 13.7 µM
A549 [13]
  IC50: 23.7 µM
HeLa [4]
  inhibition at 50 µM: 95.6%

## Cn1c(-c2cccc(-c3nc4ccccc4n3C)c2)nc2ccccc21
MCF7 [1]
  inhibition at 50 µM: 23.3%
A549 [2]
  inhibition at 50 µM: 22.2%
HepG2 [3]
  inhibition at 50 µM: 49.1%
HeLa [4]
  inhibition at 50 µM: 43.2%

## COc1cccc2c1C(=O)c1c(O)c3c(c(O)c1C2=O)C[C@@](O)(C(=O)CO)C[C@@H]3O[C@H]1C[C@H](N)[C@H](O)[C@H](C)O1 [DOXORUBICIN]
HepG2 [6]
  IC50: 2.1 µM
HeLa [11]
  IC50: 0.5 µM
MCF7 [12]
  IC50: 0.8 µM
L02
  IC50: 0.11 µM
A549 [13]
  IC50: 0.6 µM

## Fc1ccc2nc(-c3cccc(-c4nc5ccc(F)cc5[nH]4)c3)[nH]c2c1
HepG2 [6]
  IC50: 17.3 to 17.4 µM
MCF7 [1]
  inhibition at 50 µM: 26.4%
A549 [2]
  inhibition at 50 µM: 33.6%
HeLa [11]
  IC50: 11.6 µM
HepG2 [3]
  inhibition at 50 µM: 78.9%
MCF7 [12]
  IC50: > 100 µM
L02
  IC50: 20.8 µM
A549 [13]
  IC50: > 100 µM
HeLa [4]
  inhibition at 50 µM: 83.5%

## c1cc(-c2nc3ccccc3[nH]2)cc(-c2nc3ccccc3[nH]2)c1
HeLa [5]
  Activity: Active
HepG2 [6]
  IC50: 20.6 µM
[15]
  Activity: Active
MCF7 [1]
  inhibition at 50 µM: 31.9%
HeLa [8]
  Activity: Active
MCF7 [9]
  Activity: Active
[10]
  EC50: 6.47 mol%
[10]; read-out: EC50
  EC50: 85.8 µM
A549 [2]
  inhibition at 50 µM: 91.1%
HeLa [11]
  IC50: 8.5 µM
HepG2 [3]
  inhibition at 50 µM: 69.5%
MCF7 [12]
  IC50: > 100 µM
L02
  IC50: 19.9 µM
A549 [13]
  IC50: 38.5 µM
[14]
  Ka: 2.48 ×10³ /M
HeLa [4]
  inhibition at 50 µM: 96.5%

## c1ccc2[nH]c(-c3ccc(-c4nc5ccccc5[nH]4)cc3)nc2c1
MCF7 [1]
  inhibition at 50 µM: 63.3%
A549 [2]
  inhibition at 50 µM: 53.1%
HepG2 [3]
  inhibition at 50 µM: 17.4%
HeLa [4]
  inhibition at 50 µM: 59.6%
